Here are results for nine compounds from ChEMBL document CHEMBL5325494, “Glycogen synthase kinase-3: A potential target for diabetes” (Bioorg Med Chem, 2023).

Structures are written as SMILES.

The test system of one assay is PC-12. The assay can be described thus: Neuroprotective activity against CORT-induced damage in rat PC-12 cells measured after 24 hrs by MTT assay. It counts as functional, cell-based. Particulars: PC-12, 24 h. Background: Formazan colour is commonly taken as a measure of viable cells.
Assay [1] deals with T1, Glycogen synthase kinase-3 beta (Homo sapiens, UniProt P49841). The assay can be described thus: Inhibition of GSK-3beta (unknown origin).
T1 sequence (P49841 whole entry, the tested form may be a part): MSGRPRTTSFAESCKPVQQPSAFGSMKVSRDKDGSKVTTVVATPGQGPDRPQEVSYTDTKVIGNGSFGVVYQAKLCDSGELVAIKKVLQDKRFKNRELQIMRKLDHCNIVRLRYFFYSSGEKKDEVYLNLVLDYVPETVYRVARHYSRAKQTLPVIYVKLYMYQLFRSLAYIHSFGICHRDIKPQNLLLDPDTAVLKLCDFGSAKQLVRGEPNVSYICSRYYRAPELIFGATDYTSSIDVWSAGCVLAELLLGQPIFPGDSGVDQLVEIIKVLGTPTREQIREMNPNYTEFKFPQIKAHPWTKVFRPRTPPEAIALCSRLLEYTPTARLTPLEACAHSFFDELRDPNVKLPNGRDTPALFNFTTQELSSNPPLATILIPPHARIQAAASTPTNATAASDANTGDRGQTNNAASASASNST
The target in assay [2] is T1, Glycogen synthase kinase-3 beta. Description: Inhibition of full length GST-tagged human recombinant GSK-3beta (1 to 420 residues) expressed in Escherichia coli.
Assay [3] has the same target. The assay can be described thus: Inhibition of human GSK-3beta.
Assay [4] has the same target. Description: Binding affinity to full length GST-tagged human recombinant GSK-3beta (1 to 420 residues) expressed in Escherichia coli assessed as inhibition constant.
Assay [5] has the same target. Description: Inhibition of GSK-3beta (unknown origin) incubated for 1 hr by HTRF assay. Background: In TR-FRET formats the signal depends on donor and acceptor labels being close together.
Assay [6] has the same target. The assay can be described thus: Inhibition of human wildtype full length GSK-3beta.

The term EC50 denotes the concentration needed to bring the measured effect to its halfway point. Low values mean an effect from little substance, high ones a need for much substance. Compound `N#C[C@@H](CC1=NN2C(N)=NC(NC3CCCCC3)=NC2N1)C(N)=O` (some centres undefined) gave a concentration giving a half-maximal response (EC50) with PC-12 of 3 nM. In general, IC50 refers to the midpoint of a concentration-inhibition curve. On to `O=C(O)C1=CN2C3C(=C(NCCNc4ccccn4)C(F)=CC3C1=O)OCCC21CCC1` (centres undefined), for which the midpoint of inhibition in assay [1], the IC50, lay at 36 nM.

With `Nc1ncc(-c2ccc(S(=O)(=O)N3C=COCC3)cc2)nc1C(=O)Nc1cccnc1`, in assay [2], the IC50 turned out to be 10 nM.

In assay [1], `Nc1nc(NCCNc2ncc(-c3ncc[nH]3)c(-c3ccc(Cl)cc3Cl)n2)ccc1[N+](=O)[O-]` gave an IC50 of 0.06 nM.

With `CC(/C=C1\SC(=S)N(CC(=O)O)C1=O)=C\c1ccccc1`, the IC50 in assay [3] came to 21 nM. Usually Ki stands for the dissociation constant of the complex between target and ligand, obtained from inhibition or displacement. With `COCCNC(=O)c1nc(-c2ccc(S(=O)(=O)N3C=CN(C)CC3)cc2)cnc1N`, the Ki in assay [4] came out at 90 nM.

Consider `COCCN1CCC(CNC(=O)c2ncc3ccc(-c4cncc(OC(C)C)c4)cn23)CC1`, for which the IC50 in assay [5] worked out at 9 nM. With `COc1ccccc1-c1c2c(nc3[nH]nc(C)c13)CC(C)(C)CC2=O`, in assay [6], the midpoint of inhibition, the IC50, lay at 54 nM. In assay [1], `CN1CCN(c2ccc(NCCNc3ccc([N+](=O)[O-])c(N)n3)nc2-c2ccc(Cl)cc2Cl)C(=O)C1` gave an IC50 of 8 nM.
